Measured values as given in US10336822B2, “Early marker of proteinuria in patients treated with an anti-VEGF treatment” (Mayo Foundation for Medical Education and Research, priority 2009, dated 2019).
Values joined by “and” are separate entries in the source; they are usually repeats but may differ in a detail not shown here. Equal values may be shown once.

Legend:
[1] = system: urinary podocytes; assay: Podocyturia assay: urinary cells stained for podocin immunoreactivity; type: in vivo, human; conditions: for Cells/HPF (urinary podocytes): 400 × high power field, individual cancer patients on anti-VEGF therapy, Table 1
Description: A random urine sample (25-50 mL each) was centrifuged for 8 minutes at 700 g at room temperature. The pellets were rinsed twice with […]. Next, the pellets were resuspended in Dulbecco's modified eagle's medium (DMEM) F-12 medium with 10% fetal bovine serum that was supplemented with antibiotics for the prevention of bacterial contamination. A one-milliliter aliquot was plated on a collagen-coated tissue culture slide, which was followed by overnight incubation at 37° C. in 5% CO2. The next day, the media were removed, followed by two phosphate-buffered saline solution washes. The slide was fixed with 1 mL of ice cold methanol for 10 minutes at −20° C. The slide was incubated with antibodies to podocin (dilution, 1:200). After being washed with phosphate-buffered saline solution, a secondary fluorescein isothiocyanate-labeled antibody was added at a dilution of 1:40 for 30 minutes. The sediment was counterstained with Hoechst nuclear stain to facilitate differentiation of whole cells from cell fragments. Coverslips were mounted with Vectashield (Vector Labs, Burlington, Calif.), and the slides were viewed with a fluorescence microscope (Leica, Germany). Nucleated, positive-staining cells were considered to be podocytes. A renal pathologist, who was blinded to the clinical diagnosis and laboratory findings, evaluated each sample to determine the number of cells that were present and the percentage of cells that were stained for podocin.

[2] = Proteinuria in patients on anti-VEGF therapy; type: in vivo, human
Description: The following was performed to determine whether podocyturia is present in patients who, while undergoing anti-VEGF therapy, develop proteinuria (Table 1). In addition, urinary podocyte excretion was compared among patients on anti-VEGF therapy with proteinuria ranging from 101 to 9720 mg/d (Table 1).

[3] = system: renal cell carcinoma, clear cell type; assay: Clinical course of a renal cell carcinoma patient on sunitinib therapy; type: in vivo, human; conditions: person, four months into therapy
Text: They subsequently underwent a right radical nephrectomy and retroperitoneal lymphadenectomy.

[4] = Renal function (creatinine, GFR) in patients on anti-VEGF therapy; conditions: for GFR: individual cancer patients on anti-VEGF therapy, Table 1

Proteinuria ([2]; human, in vivo) [mg/day] | predicted 24 hour protein ([2]; human, in vivo) [mg] | protein in 24 hours ([2]; human, in vivo) [mg] | kidney function, as per creatinine measurements ([4]; after the regimen was changed and the dose was decreased) | creatinine ([4]; person, after seven months of therapy) | peak creatinine ([4]; person, four months into therapy) | Compound | Cells/HPF (urinary podocytes) [1] | presence of urinary podocytes ([1]; person, after seven months of therapy, FIG. 1) | Additional side effects [3] | GFR [4] | Proteinuria (dipstick) ([2]; human, in vivo) | Proteinuria ([2]; individual cancer patients on anti-VEGF therapy, Table 1)
2112 | 931 | 467 | improved | 1.3 | 1.5 | CCN(CC)CCNC(=O)c1c(C)[nH]c(/C=C2\C(=O)Nc3ccc(F)cc32)c1C [Sunitinib] | >3 Cells/HPF | presence of urinary podocytes was confirmed | hypertension, hand and foot syndrome, and drug-induced hypothyroidism | 43 |  | 
 |  |  |  |  |  | bevacizumab |  |  |  |  | 1 + dipstick | 
 |  |  |  |  |  | CNC(=O)c1cc(Oc2ccc(NC(=O)Nc3ccc(Cl)c(C(F)(F)F)c3)cc2)ccn1 [S/nib, sorafenib] | >9 Cells/HPF and 1 Cells/HPF |  |  | 70 and 39 |  | 9720 mg/day and 101 mg/day
